Columns and labels:
rat KCa2.2a = molecular target: T1, rat KCa2.2a (UniProt P0DP23+P70604); assay: Inside-out patch-clamp potentiation of KCa2.2a channels expressed in HEK293 cells; type: cell-based; conditions: for EC50: inside-out patch, HEK293, 0.15 μM Ca2+, current at −90 mV, read-out: EC50 (mean ± SEM, μM) on potentiating KCa2.2a channels; for fold higher potency on KCa2.2a channels compared to CyPPA: ratio of EC50 values vs CyPPA; for KCa2.2a/KCa2.3 subtype selectivity: vs KCa2.1 and KCa3.1
T1 construct: expressed in transfected cells; host or cells: HEK293
Description: The impact of adding one substituent group at C4 of the cyclohexane moiety of CyPPA with either electron donating (OH (2a), NH2 (2b), CH2OH (2c), and OCH3 (2d)) or electron-withdrawing groups (F (2e) and NO2 (2f)) was explored. The potency of the newly synthesized compounds compared to the template CyPPA was measured via inside-out patch clamp electrophysiology recordings with KCa2.2a channels heterologously expressed in HEK293 cells (FIG. 1A). […] The responses induced by 10 μM Ca^2+ are considered the maximal currents of the KCa2.2a channels. To evaluate the efficacy (Emax) of compounds on KCa2.2a channels, the current amplitudes at −90 mV in response to the maximal concentration of compounds were normalized to that obtained at 10 μM Ca^2+ (I/Imax (%), FIG. 1C).
(§1) The effect of newly synthesized compounds on the KCa2.x/KCa3.1 channels was investigated as previously described (Nam, Y. W.; et al, Acta Physiol (Oxf) 2020, e13552; Nam, Y. W.; et al. Scientific reports 2018, 8 (1), 10749). Briefly, the rat KCa2.2a, human KCa2.1, human KCa2.3 or human KCa3.1 channels cDNA constructs were either generated in-house or through molecular cloning services (Genscript). The channel cDNAs, along with CaM and GFP, at a ratio of 7:4:2 (ORF ratios), were transfected into HEK293 cells by the calcium-phosphate method. KCa currents were recorded 1-2 days after transfection, with an Axon200B amplifier (Molecular Devices) at room temperature. The resistance of the patch electrodes ranged from 3-5 MΩ. The pipette solution contained (in mM): 140 KCl, 10 Hepes (pH 7.4), 1 MgSO4. The bath solution containing (in mM): 140 KCl, 10 Hepes (pH 7.2), 1 EGTA, 0.1 Dibromo-BAPTA, and 1 HEDTA was mixed with Ca^2+ to obtain the desired free Ca^2+ concentrations, calculated using the software by Chris Patton of Stanford University (https://somapp.ucdmc.ucdavis.edu/pharmacology/bers/maxchelator/webmaxc/webmaxcS.htm). The Ca^2+ concentrations were verified using a Ca^2+ calibration buffer kit (Thermo Fisher Scientific). Briefly, a standard curve was generated using the Ca^2+ buffers from the kit and a fluorescence Ca^2+ indicator. Then, the Ca^2+ concentrations of the bath solution were determined through interpolation on the standard curve.
High resistance seals (>1 GΩ) were formed before inside-out patches were obtained. The seal resistance of inside-out patches was >1 GΩ, when the intracellular face was initially exposed to a zero-Ca^2+ bath solution. Currents were recorded by repetitive 1-s-voltage ramps from −100 mV to +100 mV from a holding potential of 0 mV. The currents were filtered at 2 kHz and digitized at a sampling frequency of 10 kHz. At the end of experiment, the integrity of the patch was examined by switching the bath solution back to the zero-Ca^2+ buffer. Data from patches, which maintained the seal resistance (>1 GΩ) after solution changes, were used for further analysis.
(§2) To measure the effect of CyPPA (Alomone Labs) and newly synthesized compounds, the intracellular face was exposed to bath solutions with 0.15 μM Ca^2+. One minute after switching of bath solutions, ten sweeps with a 1-s interval were recorded at a series of concentrations of compound in the presence of 0.15 μM Ca^2+. The maximal KCa2.x/KCa3.1 current in response to 10 μM Ca^2+ was then recorded.
Patch-clamp recordings were analyzed using Clampfit 10.5 (Molecular Devices LLC) and concentration-response curves were analyzed in GraphPad Prism 9.0.2 (GraphPad Software Inc.). To construct the concentration-dependent potentiation of channel activities by compound, the current amplitudes at −90 mV in response to various concentrations of the compound were normalized to that obtained at a maximal concentration of compound. The normalized currents were plotted as a function of the concentrations of the compound. EC50 values and Hill coefficients were determined by fitting the data points to a standard concentration-response curve (Y=100/(1+(X/EC50)^−Hill)). […]

human KCa2.3 channels = molecular target: T2, human KCa2.3 channels (Homo sapiens, UniProt P0DP23+Q9UGI6); assay: Inside-out patch-clamp potentiation of KCa2.3 channels expressed in HEK293 cells; type: cell-based; conditions: for EC50: inside-out patch, HEK293, 0.15 μM Ca2+, read-out: EC50 on potentiating KCa2.3 channels
T2 construct: expressed in transfected cells; host or cells: HEK293
Source text: The effects of the two newly synthesized compounds on human KCa2.3 channels (FIG. 7A) were examined.
as §1, with “The Ca^2+ concentrations were verified using a Ca^2+ calibration buffer kit (Thermo Fisher Scientific).” left out
High resistance seals (>1 GΩ) were formed before inside-out patches were obtained. […] Currents were recorded by repetitive 1-s-voltage ramps from −100 mV to +100 mV from a holding potential of 0 mV. […]
as §2, with “recorded. […]” for “recorded.”

EC50 (rat KCa2.2a)	fold higher potency on KCa2.2a channels compared to CyPPA (rat KCa2.2a)	EC50 (human KCa2.3 channels)	potency on KCa2.3 compared to KCa2.2a channels (human KCa2.3 channels)	SMILES	KCa2.2a/KCa2.3 subtype selectivity (rat KCa2.2a)
0.64 ± 0.051 µM	~10 fold	600 ± 35 nM		Cc1cc(Nc2cc(Cl)ccc2F)nc(-n2nc(C)cc2C)n1 [Compound 2q, N-(5-Chloro-2-fluorophenyl)-2-(3,5-dimethyl-1H-pyrazol-1-yl)-6-methylpyrimidin-4-amine]	retained the KCa2.2a/KCa2.3 subtype selectivity
0.99 ± 0.079 µM	~7 fold	190 ± 23 nM	significantly smaller	Cc1cc(Nc2ccc(F)c(Cl)c2)nc(-n2nc(C)cc2C)n1 [Compound 2o, N-(3-Chloro-4-fluorophenyl)-2-(3,5-dimethyl-1H-pyrazol-1-yl)-6-methyl-pyrimidin-4-amine]	retained the KCa2.2a/KCa2.3 subtype selectivity

Reference: patent US12312333B2, “SK channel positive allosteric modulators” (Chapman University, priority 2021, dated 2025)
